Source: ChEMBL document CHEMBL1128467, “Novel, potent, and selective 5-HT3 receptor antagonists based on the arylpiperazine skeleton: synthesis, structure, biological activity, and comparative molecular field analysis studies” (J Med Chem, 1995)

Key:
[1] = target: T1, 5-hydroxytryptamine receptor 2A (Rattus norvegicus, UniProt P14842)
[2] = target: T2, Serotonin 3 (5-HT3) receptor (Rattus norvegicus, UniProt P35563+Q9JJ16); assay: Binding affinity for 5-hydroxytryptamine 3 receptor from rat cortex using [3H]BRL-43694 as radioligand
T2 sequence (P35563 whole entry): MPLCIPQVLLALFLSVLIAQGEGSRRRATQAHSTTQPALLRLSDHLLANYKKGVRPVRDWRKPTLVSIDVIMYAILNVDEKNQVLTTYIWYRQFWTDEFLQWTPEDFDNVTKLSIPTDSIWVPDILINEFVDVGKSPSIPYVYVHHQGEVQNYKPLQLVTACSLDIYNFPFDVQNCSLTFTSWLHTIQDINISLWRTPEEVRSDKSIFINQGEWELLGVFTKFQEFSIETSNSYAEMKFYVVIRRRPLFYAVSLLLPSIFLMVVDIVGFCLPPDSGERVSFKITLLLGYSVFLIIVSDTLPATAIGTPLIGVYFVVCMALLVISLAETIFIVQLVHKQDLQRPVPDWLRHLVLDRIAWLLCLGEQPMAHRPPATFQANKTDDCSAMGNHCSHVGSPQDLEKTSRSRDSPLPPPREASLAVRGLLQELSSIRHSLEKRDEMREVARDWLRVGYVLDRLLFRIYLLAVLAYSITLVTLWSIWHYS
T2 sequence (Q9JJ16 whole entry): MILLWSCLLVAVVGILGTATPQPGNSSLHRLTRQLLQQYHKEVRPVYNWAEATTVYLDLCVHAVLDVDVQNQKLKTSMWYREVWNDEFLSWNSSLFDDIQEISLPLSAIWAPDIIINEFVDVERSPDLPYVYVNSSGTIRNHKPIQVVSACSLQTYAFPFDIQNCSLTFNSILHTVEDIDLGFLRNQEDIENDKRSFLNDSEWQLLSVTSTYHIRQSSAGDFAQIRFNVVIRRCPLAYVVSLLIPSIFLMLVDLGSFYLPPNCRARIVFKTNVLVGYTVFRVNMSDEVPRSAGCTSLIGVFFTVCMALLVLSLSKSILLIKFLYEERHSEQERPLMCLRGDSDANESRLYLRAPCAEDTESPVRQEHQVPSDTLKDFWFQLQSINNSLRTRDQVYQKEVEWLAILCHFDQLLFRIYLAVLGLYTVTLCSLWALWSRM

[3] = target: T3, Sodium-dependent serotonin transporter (Rattus norvegicus, UniProt P31652)
[4] = target: T4, 5-hydroxytryptamine receptor 1B (Rattus norvegicus, UniProt P28564); assay type: tissue-based, Striatum
[5] = target: T5, 5-hydroxytryptamine receptor 1A (Rattus norvegicus, UniProt P19327); assay type: tissue-based, Hippocampus
T5 sequence (P19327 whole entry): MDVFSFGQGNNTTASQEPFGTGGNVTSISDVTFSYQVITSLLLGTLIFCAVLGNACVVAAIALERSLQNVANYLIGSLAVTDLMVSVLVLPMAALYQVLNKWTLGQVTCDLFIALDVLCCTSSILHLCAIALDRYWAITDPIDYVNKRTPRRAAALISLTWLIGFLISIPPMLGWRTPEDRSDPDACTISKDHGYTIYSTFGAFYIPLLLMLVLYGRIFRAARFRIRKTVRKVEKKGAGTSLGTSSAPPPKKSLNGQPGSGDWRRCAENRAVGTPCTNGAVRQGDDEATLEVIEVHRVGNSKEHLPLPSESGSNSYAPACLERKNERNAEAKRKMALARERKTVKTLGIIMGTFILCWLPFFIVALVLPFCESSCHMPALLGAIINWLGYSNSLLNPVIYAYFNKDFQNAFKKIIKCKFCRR

[6] = system: 5-hydroxytryptamine receptor 2C (Sus scrofa)
[7] = target: T6, 5-hydroxytryptamine receptor 4 (Cavia porcellus, UniProt O70528); assay: The compound was tested for their binding affinity towards 5-hydroxytryptamine 4 receptor from guinea pig striatum using [3H]GR-113808 as radioligand; Nonactive at 10 uM
[8] = target: T4, 5-hydroxytryptamine receptor 1B; assay: The compound was tested for their binding affinity towards 5-hydroxytryptamine 1B receptor from rat striatum using [3H]5-HT as radioligand; Nonactive at 10 uM
[9] = target: T2, Serotonin 3 (5-HT3) receptor; assay: The compound was tested for their binding affinity towards 5-hydroxytryptamine 3 receptor; Nonactive at 10 uM; assay type: protein-complex assay
[10] = target: T3, Sodium-dependent serotonin transporter; assay: Effect of compound on Serotonin transporter uptake from rat cortex using [3H]citalopram as radioligand
[11] = system: 5-hydroxytryptamine receptor 2C (Sus scrofa); assay: The compound was tested for their binding affinity towards 5-hydroxytryptamine 2C receptor from pig cortex using [3H]mesulergine as radioligand; Nonactive at 10 uM
[12] = target: T6, 5-hydroxytryptamine receptor 4; assay: The compound was tested for their binding affinity towards 5-hydroxytryptamine 4 receptor from guinea pig striatum using [3H]GR-113808 as radioligand.
[13] = target: T1, 5-hydroxytryptamine receptor 2A; assay: The compound was tested for its binding affinity towards 5-hydroxytryptamine 2A receptor from rat cortex using [3H]-ketanserin as radioligand; Nonactive at 10 uM
[14] = target: T4, 5-hydroxytryptamine receptor 1B; assay: The compound was tested for their binding affinity towards 5-hydroxytryptamine 1B receptor from rat striatum using [3H]5-HT as radioligand.
[15] = system: 5-hydroxytryptamine receptor 2C (Sus scrofa); assay: The compound was tested for their binding affinity towards 5-hydroxytryptamine 2C receptor using [3H]mesulergine as radioligand; Nonactive at 10 uM
[16] = target: T1, 5-hydroxytryptamine receptor 2A; assay: The compound was tested for its binding affinity towards 5-hydroxytryptamine 2A receptor from rat cortex using [3H]ketanserin as radioligand.; Nonactive at 10 uM
[17] = target: 5-hydroxytryptamine receptor 2C (Sus scrofa); assay: The compound was tested for their binding affinity towards 5-hydroxytryptamine 2C receptor
[18] = target: T4, 5-hydroxytryptamine receptor 1B; assay: The compound was tested for their binding affinity towards 5-hydroxytryptamine 1B receptor from rat striatum using [3H]5-HT as radioligand
[19] = target: T6, 5-hydroxytryptamine receptor 4
[20] = target: T6, 5-hydroxytryptamine receptor 4; assay: Displacement of [3H]-GR113808 from 5-HT4 receptor of guinea pig striatum
[21] = target: T2, Serotonin 3 (5-HT3) receptor; assay: The compound was tested for its binding affinity towards 5-hydroxytryptamine 3 receptor from rat cortex using [3H]BRL-43694 as radioligand; NA means Not active
[22] = target: T3, Sodium-dependent serotonin transporter; assay: Effect of compound on Serotonin transporter uptake from rat cortex using [3H]citalopram as radioligand; Nonactive at 10 uM

T1 sequence (P14842 whole entry): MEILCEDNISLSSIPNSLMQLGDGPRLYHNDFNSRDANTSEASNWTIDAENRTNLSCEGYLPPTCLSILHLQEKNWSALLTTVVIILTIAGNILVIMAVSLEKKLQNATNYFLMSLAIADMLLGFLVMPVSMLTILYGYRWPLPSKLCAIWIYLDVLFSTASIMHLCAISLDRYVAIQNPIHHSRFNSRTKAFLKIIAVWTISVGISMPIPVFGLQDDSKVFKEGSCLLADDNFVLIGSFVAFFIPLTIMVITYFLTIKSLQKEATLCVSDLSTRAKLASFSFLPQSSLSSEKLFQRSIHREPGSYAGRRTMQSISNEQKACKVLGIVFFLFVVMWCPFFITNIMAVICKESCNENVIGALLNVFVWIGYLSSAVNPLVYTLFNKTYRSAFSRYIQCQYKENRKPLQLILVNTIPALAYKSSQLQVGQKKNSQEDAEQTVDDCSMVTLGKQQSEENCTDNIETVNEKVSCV
T3 sequence (P31652 whole entry): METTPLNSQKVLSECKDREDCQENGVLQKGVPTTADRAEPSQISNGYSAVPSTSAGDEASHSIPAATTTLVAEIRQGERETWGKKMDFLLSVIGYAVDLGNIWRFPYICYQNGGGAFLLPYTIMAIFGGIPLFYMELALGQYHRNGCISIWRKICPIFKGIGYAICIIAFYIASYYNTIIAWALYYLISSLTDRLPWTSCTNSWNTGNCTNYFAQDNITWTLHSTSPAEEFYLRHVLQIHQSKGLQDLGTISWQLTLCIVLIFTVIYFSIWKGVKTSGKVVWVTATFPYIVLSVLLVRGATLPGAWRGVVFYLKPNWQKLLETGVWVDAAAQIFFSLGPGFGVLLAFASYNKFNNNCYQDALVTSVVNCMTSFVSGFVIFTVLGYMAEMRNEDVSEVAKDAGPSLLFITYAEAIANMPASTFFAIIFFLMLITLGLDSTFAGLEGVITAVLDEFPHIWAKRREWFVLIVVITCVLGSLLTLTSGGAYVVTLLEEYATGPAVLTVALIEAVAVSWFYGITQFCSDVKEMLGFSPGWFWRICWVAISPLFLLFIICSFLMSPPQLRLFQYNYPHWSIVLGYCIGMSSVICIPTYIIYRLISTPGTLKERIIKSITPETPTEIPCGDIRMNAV
T4 sequence (P28564 whole entry): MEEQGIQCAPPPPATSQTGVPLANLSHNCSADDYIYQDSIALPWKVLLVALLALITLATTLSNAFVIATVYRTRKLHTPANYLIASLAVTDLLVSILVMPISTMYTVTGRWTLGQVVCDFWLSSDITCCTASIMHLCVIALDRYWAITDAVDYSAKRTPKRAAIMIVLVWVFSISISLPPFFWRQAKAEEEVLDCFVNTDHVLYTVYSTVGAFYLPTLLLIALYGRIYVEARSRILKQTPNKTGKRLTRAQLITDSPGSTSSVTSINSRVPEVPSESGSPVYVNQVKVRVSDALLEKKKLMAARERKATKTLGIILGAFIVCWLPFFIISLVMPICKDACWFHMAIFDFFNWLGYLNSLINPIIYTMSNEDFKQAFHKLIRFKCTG
T6 sequence (O70528 whole entry): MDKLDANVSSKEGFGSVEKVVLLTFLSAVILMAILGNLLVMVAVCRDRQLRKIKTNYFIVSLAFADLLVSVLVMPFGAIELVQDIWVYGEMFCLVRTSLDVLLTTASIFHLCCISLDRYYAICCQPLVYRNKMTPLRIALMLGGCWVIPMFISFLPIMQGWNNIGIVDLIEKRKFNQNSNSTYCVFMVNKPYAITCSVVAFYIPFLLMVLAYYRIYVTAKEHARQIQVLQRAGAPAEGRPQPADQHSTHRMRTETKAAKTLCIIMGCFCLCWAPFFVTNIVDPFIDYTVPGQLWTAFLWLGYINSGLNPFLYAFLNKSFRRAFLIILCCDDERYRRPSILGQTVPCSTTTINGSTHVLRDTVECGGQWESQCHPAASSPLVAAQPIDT

Row | Compound | Ki ([1]; read-out: Ki) [nM] | Ki [2] [nM] | Ki [3] | Ki [4] | Ki [5] | Ki [6] | further results
1 | COc1cc2c(N3CCNCC3)nc3ccccc3c2c2ccccc12 | 1100 | 66.5 | Not Active | Not Active | Not Active | Not Active | 
2 | CCN1CCN(c2nc3ccccc3c3c2ccc2ccccc23)CC1 | 640 | 16.4 | Not Active | Not Active | Not Active | Not Active | 
3 | CN1CCN(c2nc3ccccc3c3c2CCOc2ccccc2-3)CC1 | 2400 |  |  | Not Active | Not Active |  | Ki [7]: Not Active
4 | CN(C)CCSc1nc2ccccc2c2c1CCc1ccccc1-2 | 930 |  |  |  | Not Active | Not Active | Ki [8]: Not Active; Ki [9]: Not Active
5 | CCN1CCN(c2nc3ccccc3c3c2CCc2ccccc2-3)CC1 | 600 | 8 | Not Active | Not Active | Not Active | Not Active | 
6 | c1ccc2c(CCC3CCNCC3)c[nH]c2c1 [INDALPINE] |  |  |  |  |  |  | Ki [10]: 2 nM
7 | CN1CCN(c2nc3ccccc3c3c2ccc2ccccc23)CC1 | 920 | 9.5 | Not Active | Not Active | Not Active |  | Ki [11]: Not Active; Ki [12]: Not Active
8 | c1ccc2c(c1)ccc1c(N3CCNCC3)nc3ccccc3c12 | 1100 | 130 | Not Active | Not Active | Not Active | Not Active | 
9 | CCN1CCN(c2nc3ccccc3c3c2cc(OC)c2ccccc23)CC1 | 690 | 220 |  | Not Active |  | Not Active | 
10 | CCN1CCN(c2nc3ccccc3c3c2COc2ccccc2-3)CC1 | 1100 | 53.3 | Not Active | Not Active | Not Active | Not Active | 
11 | CCN1CCN(c2nc3ccccc3c3c2CCOc2ccccc2-3)CC1 |  |  |  |  | Not Active |  | Ki [8]: Not Active; Ki [13]: Not Active
12 | c1ccc2c(c1)nc(N1CCNCC1)c1oc3ccccc3c12 | 1200 | 32.5 | Not Active |  | Not Active |  | Ki [14]: 280 nM; Ki [15]: Not Active
13 | CN(C)CCSc1nc2ccccc2c2c1COc1ccccc1-2 | 1800 |  | Not Active | Not Active | Not Active | Not Active | Ki [9]: Not Active
14 | CN(C)CCSc1nc2ccccc2c2c1oc1ccccc12 |  | 410 | Not Active | Not Active | Not Active | Not Active | Ki [16]: Not Active
15 | COc1cc2c(N3CCN(C)CC3)nc3ccccc3c2c2ccccc12 | 240 | 41.6 |  | Not Active |  |  | Ki [17]: 2300 nM
16 | c1ccc2nc(N3CCNCC3)ccc2c1 [QUIPAZINE] | 130 | 1.2 |  |  |  |  | Ki [18]: 208 nM; Ki [19]: Not Active; Ki [10]: 43 nM
17 | c1ccc2c(c1)CCc1c(N3CCNCC3)nc3ccccc3c1-2 | 640 | 5.4 |  | Not Active | Not Active | Not Active | Ki [10]: 2600 nM
18 | CN(C)CCSc1nc2ccccc2c2c1ccc1ccccc12 | 2400 |  | Not Active | Not Active | Not Active | Not Active | Ki [9]: Not Active
19 | CN1CCN(c2nc3ccccc3c3c2CCc2ccccc2-3)CC1 | 400 | 3.5 | Not Active |  | Not Active |  | Ki [17]: 7200 nM; Ki [20]: 6600 nM; Ki [8]: Not Active
20 | COc1cc2c(SCCN(C)C)nc3ccccc3c2c2ccccc12 |  |  | Not Active | Not Active | Not Active | Not Active | Ki [1]: Not Active; Ki [21]: Not Active
21 | CCN1CCN(c2nc3ccccc3c3c2oc2ccccc23)CC1 | 530 | 52.2 |  | Not Active | Not Active | Not Active | Ki [22]: Not Active
22 | c1ccc2c(c1)OCCc1c(N3CCNCC3)nc3ccccc3c1-2 | 3200 |  |  |  | Not Active |  | Ki [18]: 420 nM; Ki [10]: 330 nM
23 | CN(C)CCSc1nc2ccccc2c2c1CCOc1ccccc1-2 | 2800 | 45.9 | Not Active |  | Not Active | Not Active | Ki [18]: 1300 nM
24 | CN1CCN(c2nc3ccccc3c3c2COc2ccccc2-3)CC1 | 1400 | 1.6 | Not Active | Not Active | Not Active | Not Active | Ki [19]: Not Active
25 | c1ccc2c(c1)OCc1c(N3CCNCC3)nc3ccccc3c1-2 | 2800 | 11.5 |  | Not Active | Not Active | Not Active | Ki [10]: 360 nM
26 | CN1CCN(c2nc3ccccc3c3c2oc2ccccc23)CC1 | 450 | 12.5 | Not Active | Not Active | Not Active | Not Active | Ki ([12]; read-out: Ki): 6900 nM
